Experimental data taken from US8741944B2, “Anti-infective agents against intracellular pathogens” (priority 2007, dated 2014).

Legend:
SR (Leukemia) = assay: NCI DTP tumor cell line screen (SRB), SR
Method: (§1) For a typical screening experiment, cells are inoculated into 96 well microtiter plates in 100 μL at plating densities ranging from 5,000 to 40,000 cells/well depending on the doubling time of individual cell lines. After cell inoculation, the microtiter plates are incubated at 37° C., 5% CO2, 95% air and 100% relative humidity for 24 h prior to addition of experimental drugs.
(§2) After 24 h, two plates of each cell line are fixed in situ with TCA, to represent a measurement of the cell population for each cell line at the time of drug addition (Tz). Experimental drugs are solubilized in dimethyl sulfoxide at 400-fold the desired final maximum test concentration and stored frozen prior to use. At the time of drug addition, an aliquot of frozen concentrate is thawed and diluted to twice the desired final maximum test concentration with complete medium containing 50 μg/ml gentamicin. Additional four, 10-fold or ½ log serial dilutions are made to provide a total of five drug concentrations plus control. Aliquots of 100 μl of these different drug dilutions are added to the appropriate microtiter wells already containing 100 μl of medium, resulting in the required final drug concentrations.
(§3) Following drug addition, the plates are incubated for an additional 48 h at 37° C., 5% CO2, 95% air, and 100% relative humidity. For adherent cells, the assay is terminated by the addition of cold TCA. Cells are fixed in situ by the gentle addition of 50 μl of cold 50% (w/v) TCA (final concentration, 10% TCA) and incubated for 60 minutes at 4° C. The supernatant is discarded, and the plates are washed five times with tap water and air dried. Sulforhodamine B (SRB) solution (1001) at 0.4% (w/v) in 1% acetic acid is added to each well, and plates are incubated for 10 minutes at room temperature. After staining, unbound dye is removed by washing five times with 1% acetic acid and the plates are air dried. Bound stain is subsequently solubilized with 10 mM trizma base, and the absorbance is read on an automated plate reader at a wavelength of 515 nm. For suspension cells, the methodology is the same except that the assay is terminated by fixing settled cells at the bottom of the wells by gently adding 50 μl of 80% TCA (final concentration, 16% TCA). Using the seven absorbance measurements [time zero, (Tz), control growth, (C), and test growth in the presence of drug at the five concentration levels (Ti)], the percentage growth is calculated at each of the drug concentrations levels. Percentage growth inhibition is calculated as: [(Ti−Tz)/(C−Tz)]×100 for concentrations for which Ti>/=Tz [(Ti−Tz)/Tz]×100 for concentrations for which Ti<Tz
(§4) Three dose response parameters are calculated for each experimental agent. […] The drug concentration resulting in total growth inhibition (TGI) is calculated from Ti=Tz. […] Values are calculated for each of these three parameters if the level of activity is reached; however, if the effect is not reached or is exceeded, the value for that parameter is expressed as greater or less than the maximum or minimum concentration tested.

[1] = system: EKVX (Non-Small Cell Lung Cancer); assay: NCI DTP tumor cell line screen (SRB), EKVX
Method: as §1, §2, §3, §4

A498 (Renal Cancer) = assay: NCI DTP tumor cell line screen (SRB), A498
Method: as §1, §2, §3, §4

ACHN (Renal Cancer) = assay: NCI DTP tumor cell line screen (SRB), ACHN
Method: as §1, §2, §3, §4

K-562 (Leukemia) = assay: NCI DTP tumor cell line screen (SRB), K-562
Method: as §1, §2, §3, §4

SN12C (Renal Cancer) = assay: NCI DTP tumor cell line screen (SRB), SN12C
Method: as §1, §2, §3, §4

SW-620 (Colon Cancer) = assay: NCI DTP tumor cell line screen (SRB), SW-620
Method: as §1, §2, §3, §4

DU-145 (Prostate Cancer) = assay: NCI DTP tumor cell line screen (SRB), DU-145
Method: as §1, §2, §3, §4

OVCAR-3 (Ovarian Cancer) = assay: NCI DTP tumor cell line screen (SRB), OVCAR-3
Method: as §1, §2, §3, §4

HS 578T (Breast Cancer) = assay: NCI DTP tumor cell line screen (SRB), HS 578T
Method: as §1, §2, §3, §4

LOX IMVI (Melanoma) = assay: NCI DTP tumor cell line screen (SRB), LOX IMVI
Method: as §1, §2, §3, §4

SK-MEL-2 (Melanoma) = assay: NCI DTP tumor cell line screen (SRB), SK-MEL-2
Method: as §1, §2, §3, §4

RPMI-8226 (Leukemia) = assay: NCI DTP tumor cell line screen (SRB), RPMI-8226
Method: as §1, §2, §3, §4

[2] = system: A549/ATCC (Non-Small Cell Lung Cancer); assay: NCI DTP tumor cell line screen (SRB), A549/ATCC
Method: as §1, §2, §3, §4

[3] = system: MDA-MB-231/ATCC (Breast Cancer); assay: NCI DTP tumor cell line screen (SRB), MDA-MB-231/ATCC
Method: as §1, §2, §3, §4

4-[5-(2-Phenanthrenyl)-3-(trifluoromethyl)-1H-pyrazol-1-yl]-phenyl -guanidine [Compound 71]
GI50 (SR (Leukemia)): 38.6 nM | TGI (SR (Leukemia)): 3.79E−07 | Percent Growth (SR (Leukemia); Log10 Concentration −4.0): −21% | Percent Growth (SR (Leukemia); Log10 Concentration −5.0): −36% | Percent Growth (SR (Leukemia); Log10 Concentration −6.0): −30% | Percent Growth (SR (Leukemia); Log10 Concentration −7.0): 42% | Percent Growth (SR (Leukemia); Log10 Concentration −8.0): 62% | GI50 [1]: 1060 nM | TGI [1]: 2.24E−06 | Percent Growth ([1]; Log10 Concentration −5.0): −100% | Percent Growth ([1]; Log10 Concentration −7.0): 63% | Percent Growth ([1]; Log10 Concentration −8.0): 55% | GI50 (A498 (Renal Cancer)): 16.5 µM | TGI (A498 (Renal Cancer)): 4.35E−05 | Percent Growth (A498 (Renal Cancer); Log10 Concentration −4.0): −43% | Percent Growth (A498 (Renal Cancer); Log10 Concentration −5.0): 76% | Percent Growth (A498 (Renal Cancer); Log10 Concentration −6.0): 73% | Percent Growth (A498 (Renal Cancer); Log10 Concentration −7.0): 91% | Percent Growth (A498 (Renal Cancer); Log10 Concentration −8.0): 116% | GI50 (ACHN (Renal Cancer)): 1670 nM | TGI (ACHN (Renal Cancer)): 3.15E−06 | Percent Growth (ACHN (Renal Cancer); Log10 Concentration −4.0): −22% | Percent Growth (ACHN (Renal Cancer); Log10 Concentration −5.0): −91% | Percent Growth (ACHN (Renal Cancer); Log10 Concentration −6.0): 90% | Percent Growth (ACHN (Renal Cancer); Log10 Concentration −8.0): 80% | GI50 (K-562 (Leukemia)): 326 nM | TGI (K-562 (Leukemia)): 1.52E−06 | Percent Growth (K-562 (Leukemia); Log10 Concentration −4.0): −60% | Percent Growth (K-562 (Leukemia); Log10 Concentration −5.0): −58% | Percent Growth (K-562 (Leukemia); Log10 Concentration −6.0): 13% | Percent Growth (K-562 (Leukemia); Log10 Concentration −8.0): 94% | GI50 (SN12C (Renal Cancer)): 1570 nM | TGI (SN12C (Renal Cancer)): 2.91E−06 | Percent Growth (SN12C (Renal Cancer); Log10 Concentration −4.0): −62% | Percent Growth (SN12C (Renal Cancer); Log10 Concentration −5.0): −100% | Percent Growth (SN12C (Renal Cancer); Log10 Concentration −7.0): 78% | GI50 (SW-620 (Colon Cancer)): 1750 nM | TGI (SW-620 (Colon Cancer)): 3.13E−06 | Percent Growth (SW-620 (Colon Cancer); Log10 Concentration −4.0): −92% | Percent Growth (SW-620 (Colon Cancer); Log10 Concentration −5.0): −100% | Percent Growth (SW-620 (Colon Cancer); Log10 Concentration −6.0): 98% | Percent Growth (SW-620 (Colon Cancer); Log10 Concentration −7.0): 91% | Percent Growth (SW-620 (Colon Cancer); Log10 Concentration −8.0): 83% | GI50 (DU-145 (Prostate Cancer)): 1550 nM | TGI (DU-145 (Prostate Cancer)): 2.89E−06 | Percent Growth (DU-145 (Prostate Cancer); Log10 Concentration −4.0): −100% | Percent Growth (DU-145 (Prostate Cancer); Log10 Concentration −5.0): −100% | Percent Growth (DU-145 (Prostate Cancer); Log10 Concentration −6.0): 85% | Percent Growth (DU-145 (Prostate Cancer); Log10 Concentration −8.0): 72% | GI50 (OVCAR-3 (Ovarian Cancer)): 1400 nM | TGI (OVCAR-3 (Ovarian Cancer)): 2.70E−06 | Percent Growth (OVCAR-3 (Ovarian Cancer); Log10 Concentration −4.0): −72% | Percent Growth (OVCAR-3 (Ovarian Cancer); Log10 Concentration −5.0): −100% | Percent Growth (OVCAR-3 (Ovarian Cancer); Log10 Concentration −6.0): 76% | Percent Growth (OVCAR-3 (Ovarian Cancer); Log10 Concentration −8.0): 91% | GI50 (HS 578T (Breast Cancer)): 1860 nM | TGI (HS 578T (Breast Cancer)): 3.78E−06 | Percent Growth (HS 578T (Breast Cancer); Log10 Concentration −4.0): −38% | Percent Growth (HS 578T (Breast Cancer); Log10 Concentration −5.0): −69% | Percent Growth (HS 578T (Breast Cancer); Log10 Concentration −6.0): 94% | Percent Growth (HS 578T (Breast Cancer); Log10 Concentration −7.0): 100% | GI50 (LOX IMVI (Melanoma)): 1340 nM | TGI (LOX IMVI (Melanoma)): 2.65E−06 | Percent Growth (LOX IMVI (Melanoma); Log10 Concentration −4.0): −53% | Percent Growth (LOX IMVI (Melanoma); Log10 Concentration −5.0): −98% | Percent Growth (LOX IMVI (Melanoma); Log10 Concentration −6.0): 72% | Percent Growth (LOX IMVI (Melanoma); Log10 Concentration −8.0): 73% | GI50 (SK-MEL-2 (Melanoma)): 1570 nM | TGI (SK-MEL-2 (Melanoma)): 2.91E−06 | Percent Growth (SK-MEL-2 (Melanoma); Log10 Concentration −4.0): −29% | Percent Growth (SK-MEL-2 (Melanoma); Log10 Concentration −5.0): −100% | Percent Growth (SK-MEL-2 (Melanoma); Log10 Concentration −7.0): 97% | Percent Growth (SK-MEL-2 (Melanoma); Log10 Concentration −8.0): 85% | GI50 (RPMI-8226 (Leukemia)): 1030 nM | TGI (RPMI-8226 (Leukemia)): 2.25E−06 | Percent Growth (RPMI-8226 (Leukemia); Log10 Concentration −4.0): −47% | Percent Growth (RPMI-8226 (Leukemia); Log10 Concentration −5.0): −95% | Percent Growth (RPMI-8226 (Leukemia); Log10 Concentration −6.0): 52% | Percent Growth (RPMI-8226 (Leukemia); Log10 Concentration −7.0): 65% | Percent Growth (RPMI-8226 (Leukemia); Log10 Concentration −8.0): 58% | GI50 [2]: 1680 nM | TGI [2]: 3.04E−06 | Percent Growth ([2]; Log10 Concentration −4.0): −63% | Percent Growth ([2]; Log10 Concentration −5.0): −100% | TGI [3]: 1.66E−06 | Percent Growth ([3]; Log10 Concentration −4.0): −39% | Percent Growth ([3]; Log10 Concentration −5.0): −98% | Percent Growth ([3]; Log10 Concentration −6.0): 27% | Percent Growth ([3]; Log10 Concentration −7.0): 78% | Percent Growth ([3]; Log10 Concentration −8.0): 47%
